Assay results taken from article PMC2267855, “Site-directed mutagenesis of Arginine282 suggests how protons and peptides are co-transported by rabbit PepT1” (The International Journal of Biochemistry & Cell Biology, 2008).
Numbering of substitutions follows the chain as printed. One block for each molecule: values may come before it.

Columns and labels:
wild-type PepT1 [1] = biological target: T1, wild-type PepT1 (Oryctolagus cuniculus, UniProt P36836); assay: Membrane potential of oocytes expressing wild-type PepT1 (single microelectrode); assay type: cell-based, rabbit; details: 10 mM, pHout 5.5, 1 min
T1 construct: expressed in transfected cells; host or cells: Xenopus laevis oocytes injected with cRNA
T1 sequence (P36836 1-707): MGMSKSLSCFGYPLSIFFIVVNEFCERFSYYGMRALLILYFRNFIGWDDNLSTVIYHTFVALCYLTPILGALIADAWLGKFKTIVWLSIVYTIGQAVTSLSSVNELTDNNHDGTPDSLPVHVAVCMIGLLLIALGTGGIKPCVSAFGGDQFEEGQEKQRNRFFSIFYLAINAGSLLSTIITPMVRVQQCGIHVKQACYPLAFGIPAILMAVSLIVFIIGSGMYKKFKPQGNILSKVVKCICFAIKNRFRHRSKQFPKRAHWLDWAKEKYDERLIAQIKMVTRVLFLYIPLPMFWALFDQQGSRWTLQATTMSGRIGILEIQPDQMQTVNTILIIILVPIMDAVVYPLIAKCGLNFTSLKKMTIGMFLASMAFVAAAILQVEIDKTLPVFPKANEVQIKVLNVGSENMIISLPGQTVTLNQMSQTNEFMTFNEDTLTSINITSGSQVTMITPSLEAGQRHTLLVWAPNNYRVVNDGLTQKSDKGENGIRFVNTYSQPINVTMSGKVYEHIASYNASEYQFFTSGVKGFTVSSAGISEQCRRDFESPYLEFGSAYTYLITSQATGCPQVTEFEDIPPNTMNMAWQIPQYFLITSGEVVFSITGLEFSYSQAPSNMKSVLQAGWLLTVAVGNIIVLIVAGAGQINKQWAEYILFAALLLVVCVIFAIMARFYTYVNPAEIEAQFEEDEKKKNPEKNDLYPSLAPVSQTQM
Method: (§1) Measurements of membrane potential were made by impaling oocytes with a single glass microelectrode (Intra 767 amplifier, WPI, Stevenage, Hertfordshire, UK) perfused in uptake medium (as above) with or without 0.4 μM D-Phe-L-Gln (synthesised in house), 0.6 mM Gly-L-Gln (Sigma, Poole, UK) or 10 mM 4-aminobenzoic acid (4-AMBA, Sigma). Two-electrode voltage clamp (TEVC) was performed by placing oocytes in a 0.1 ml recording chamber and perfusing with uptake solution (pH 5.5 or 7.4) at a rate of 15 ml/min. Oocytes were impaled by two agarose-cushioned microelectrodes filled with 3 M KCl (0.5–2.0 MΩ) and voltage-clamped at −60 mV using a Geneclamp 500B amplifier and PCLAMP 8.1 software (Axon Instruments, CA, USA). The holding potential was stepped from −60 mV over the range of −150 to +50 mV in 10 mV steps, each pulse lasting 100 ms, and returning to −60 mV in between test voltage pulses. Typically traces were filtered at 1 kHz during recording and digitized at 0.5–5 kHz using the DigiData 1200 interface (Axon Instruments, CA, USA). All experiments were carried out at room temperature.

R282E-PepT1 = biological target: T2, R282E-PepT1 (Oryctolagus cuniculus, UniProt P36836, R282E); assay: Membrane potential of oocytes expressing R282E-PepT1 (single microelectrode); assay type: cell-based, rabbit; details: 10 mM, pHout 5.5, 1 min
T2 construct: expressed in transfected cells; host or cells: Xenopus laevis oocytes injected with cRNA
T2 sequence (P36836 1-707 R282E): T1 sequence (P36836 1-707) with R282E
Method: as §1

wild-type PepT1 [2] = biological target: T1, wild-type PepT1; assay: Diethylpyrocarbonate inhibition of PepT1-mediated dipeptide uptake and protection by substrates; assay type: cell-based, rabbit; details: for protection of PepT1 from DEPC inhibition: 5 mM present during 1 mM DEPC incubation (15 min), uptake measured over 1 h
Method: (§2) Zero-trans uptake of [^3H]-D-Phe-L-Gln (17.4 Ci/mmole, custom synthesised, Cambridge Research Biochemicals, Stockton-on-Tees, UK) was performed as previously described ([Meredith, 2004]). Briefly, 5 oocytes were incubated in 100 μl of uptake medium (95 mM NaCl, 2 mM KCl, 1 mM CaCl2, 0.42 mM MgCl2, 10 mM Tris/Hepes pH 7.4 or Tris/Mes pH 5.5) with tracer (0.4 μM) [^3H]-D-Phe-L-Gln. After incubation, the oocytes were washed sequentially five times in 1 ml of ice-cold 120 mM NaCl solution, lysed individually with 100 μl 2% (w/v) SDS and liquid scintillation counted. As a control non-injected oocytes were also incubated in uptake medium with [^3H]-D-Phe-L-Gln as above.
Diethylpyrocarbonate (DEPC) inhibition of PepT1 was performed using a similar protocol to that of [Terada, Saito, and Inui (1998)]. Briefly, PepT1 oocytes were preincubated with 1 mM DEPC for 15 min at pHout 5.5 in the absence or presence of the PepT1 substrates Gly-L-Gln, N-Acetyl-Phe ([Meredith et al., 2000]), and L-Ala-Tyramine (custom synthesised) and the non-substrate Tyr (all 5 mM). The oocytes were then washed in uptake medium before uptake assays were performed as detailed above.

wild-type rabbit PepT1 = biological target: T3, wild-type rabbit PepT1 (Oryctolagus cuniculus, UniProt P36836); assay: Inhibition of [3H]-D-Phe-L-Gln uptake into Xenopus oocytes expressing wild-type PepT1 (competition, Ki); assay type: cell-based; details: PepT1, data not shown; read-out: Ki (PepT1 substrate)
T3 construct: expressed in transfected cells; host or cells: Xenopus laevis oocytes injected with cRNA
T3 sequence (P36836 1-707): T1 sequence (P36836 1-707)
Method: as §2
The affinity of wild-type and mutant PepT1 were assessed by competition studies with 0.4 μM [^3H]-D-Phe-L-Gln and Gly-L-Gln present in the uptake medium in concentrations from 0 to 2 mM using the protocol above, and the Ki calculated using the method of [Deves and Boyd (1989)].

Structure (SMILES): Nc1ccc(C(=O)O)cc1 [4-AMBA, 4-aminobenzoic acid]
- membrane potential depolarisation (wild-type PepT1 [1]): failed to induce a depolarisation
- membrane potential depolarisation (R282E-PepT1): failed to induce a depolarisation

Structure (SMILES): CCOC(=O)OC(=O)OCC [DEPC, Diethylpyrocarbonate]
- inhibition of PepT1 mediated dipeptide uptake (wild-type PepT1 [2]; 1 mM, 15 min preincubation, pHout 5.5, uptake measured over 1 h): completely inhibited

Other lines, results leading:

- Ki (wild-type rabbit PepT1): ~100 µM
- protection of PepT1 from DEPC inhibition (wild-type PepT1 [2]): only partially prevented
Structure (SMILES): C[C@H](N)C(=O)NCCc1ccc(O)cc1 [L-Ala-Tyramine]

- protection of PepT1 from DEPC inhibition (wild-type PepT1 [2]): largely prevented
Structure (SMILES): CC(=O)NC(Cc1ccccc1)C(=O)O (stereo not shown) [N-Acetyl-Phe]

- protection of PepT1 from DEPC inhibition (wild-type PepT1 [2]): not
Structure (SMILES): N[C@@H](Cc1ccc(O)cc1)C(=O)O [Tyr]
